Entries after “also recorded” stand apart in the source; their conditions may differ.
Tests used:
[1] = test system: constrictive mouse model of trigeminal neuralgia; assay: Mechanical allodynia (Von Frey filament) after constriction of the maxillary nerve; format: in vivo; details: for mechanical allodynia (sensitivity to crude touch): WT mice, i.p. daily for two days before surgery and daily after behavior testing, sulforaphane, exemestane, letrozole 10 mg/kg, JQ-1 40 mg/kg, ascorbate 100 mg/kg, vs vehicle; for persistence of effects after treatment: daily i.p. dosing just after behavior testing
Method: Constriction of the Maxillary Nerve Constriction of the maxillary division of trigeminal nerve was performed as previously described (See Benedetti, A., et al., Biochimica Et Biophysica Acta Bba—Lipids Lipid Metabolism 620, 281-296 (1980) and Vos, B., et al J Neurosci 14, 2708-2723 (1994)). The procedure was performed under direct visualization and control with a surgical microscope. Mice were first anesthetized with ketamine (100 mg/kg, i.p.) and xylazine (12.5 mg/kg, i.p.) and monitored by pinching the skin between the toes with forceps and monitoring for withdrawal. Mice were restrained with adhesive tape to a sterilized polystyrene board. Upon sufficient anesthesia, the scalp was shaved and an anterior to posterior skin incision was made at the midline to expose the nasal and maxillary bones. The maxillary nerve was exposed and carefully dissected free from the surrounding connective tissue. The distal end of the maxillary nerve was then loosely constricted using 8-0 silk sutures as a ligature. The sutures were tied using a slip knot followed by a normal knot, after which any remaining suture was cut free. The incision was then closed with a 4-0 silk suture. In the sham procedure, the left maxillary nerve was exposed but not constricted. Mice were monitored and rehydrated until fully recovered from anesthesia.
Pharmacologic Treatments Mice were dosed with either sulforaphane (10 mg/kg, i.p.), exemestane (10 mg/kg, i.p.), letrozole (10 mg/kg, i.p.), (+)-JQ-1 (40 mg/kg, i.p.), (−)-JQ-1 (40 mg/kg, i.p.), or ascorbate (100 mg/kg, i.p.) as indicated below. Mice were first dosed daily for two days before surgery and again daily just after behavior testing. For local exemestane treatment, exemestane (5 μL, 25 μg total) was applied directly to the maxillary nerve. Mice received a single dose during surgery. Mice were dosed with AM-0902 (30 mg/kg, p.o.). Mice were treated with AM-0902 were dosed 30 min prior to behavior testing. Mice were dosed with tamoxifen (75 mg/kg, i.p.). Mice were dosed once every 24 hrs over 5 consecutive days. Behavioral and molecular tests were only performed 7 or more days after the final tamoxifen injection.
Mechanical Allodynia Mechanical allodynia was assessed in C57BL/6J, TRPA1^+/+, TRPA1^−/−, Keap1(f/f), and Keap1(f/f/CMV-CreER mice using a Von Frey filament as previously outlined (See Benedetti, A., et al., Biochimica Et Biophysica Acta Bba—Lipids Lipid Metabolism 620, 281-296 (1980) and Vos, B., et al J Neurosci 14, 2708-2723 (1994)). Animals were placed individually in transparent plastic boxes and allowed to acclimate to the environment for at least 30 min before testing. After habituation, a 0.04 g force Von Frey filament was used to stimulate the territory innervated by the maxillary nerve, including the vibrissal skin pad. Each mouse's response to the filament was scored from 0-4 on the scale below. Each mouse was scored ten times per day. Changes in mechanical allodynia were considered relative to sham- or vehicle-treated animal controls. Behavior was assessed concomitantly or in a blocked manner with consideration for both genotype and treatment. • 0—no response • 1—non-defensive response to the stimulus (e.g., mouse non-defensively explores filament) • 2—withdrawal response (e.g., mouse turns head away from filament) • 3—escape/attack response (e.g., mouse moves body away from filament and assumes crouching position against the box wall; actively attacks filament by biting and/or grabbing) • 4—asymmetric face grooming (e.g., mouse wipes stimulated facial area in uninterrupted series of at least three face-wash strokes)

TRPA1 = assay: Western blot for TRPA1 from maxillary nerves; format: in vivo, mouse; details: normalized to β-actin; vs vehicle
Excerpt: FIGS. 15A-15H are western blots for TRPA1 (FIGS. 15A, 15C, 15E, and 15G) and graphs of relative TRPA1 expression (FIGS. 15B, 15D, 15F and 15H) from maxillary nerves of mice following constriction compared to sham surgery (FIG. 15A-15B) or treatment with sulforaphane (FIG. 15C-15D), exemestane (FIG. 15E-15F), or JQ-1 (FIG. 15G-15H), normalized to β-actin. Lanes and points represent individual mice. Median and range depicted in graphs of relative TRPA1 expression. ns=P>0.05 by two-tailed unpaired Student's t-test.
Western Blotting Western blotting was performed as previously described (See Vasavda, C. et al. Cell Chem Biol 26, 1450-1460.e7 (2019)). Briefly, tissues were homogenized at 4° C. in lysis buffer (pH 7.4 solution of 50 mM Tris-HCl, 150 mM NaCl, 0.1% SDS, 0.5% sodium deoxycholate, and 1% Triton X-100) supplemented with protease inhibitors (Sigma). When dissecting maxillary nerves for immunoblot analysis, nerves were as dissected both as proximally towards the semilunar ganglion and as distal to the skin as possible. Nerves were harvested 11 days after surgery, immediately after the final behavioral test. Lysates were then pulse sonicated and centrifuged at 16,000 g for 10 min at 4° C. Fifteen micrograms of cleared lysate were run on a 4-12% polyacrylamide Bis-Tris gradient gel in running buffer (pH 7.3 solution of 50 mM MES, 50 mM Tris Base, 0.1% SDS, 1 mM EDTA) and then transferred to a PVDF membrane. Membranes were blocked with 5% milk in TBS-T (pH 7.6 solution of 16 mM Tris-HCl, 140 mM NaCl, 0.1% Tween-20) for 1 hr at 25° C. and then incubated with primary antibodies in 3% bovine serum albumin (BSA) (w/v) in TBS-T overnight at 4° C. The following day, membranes were washed with TBS-T, and then incubated with secondary antibodies in 3% BSA (w/v) in TBS-T for 1 hr at 25° C. The following primary antibodies were used: rabbit anti-4-HNE (Abeam ab46545; 1:1.000), rabbit anti-TRPA1 (Novus Biologicals NB110-40763; 1:1,000), rabbit anti-DNP (Millipore Sigma 90451; 1:150), and mouse anti-β-actin (Santa Cruz Biotech sc-47778 HRP; 1:10,000). […]

[2] = test system: constrictive mouse model of trigeminal neuralgia; assay: Mechanical allodynia (Von Frey filament) after constriction of the maxillary nerve; format: in vivo; details: i.p. daily, sulforaphane 10 mg/kg; for mechanical allodynia (analgesic effect): NRF2−/− mice, exemestane 10 mg/kg, JQ-1 40 mg/kg
[3] = test system: constrictive mouse model of trigeminal neuralgia; assay: Cold allodynia (ice-cold acetone) after constriction of the maxillary nerve; format: in vivo; details: i.p. daily, sulforaphane 10 mg/kg; for cold allodynia (analgesic effect): NRF2−/− mice, exemestane 10 mg/kg, JQ-1 40 mg/kg
[4] = TRPA1−/− mice, compared with genetic deletion of TRPA1 alone

| Structure (SMILES) | mechanical allodynia (sensitivity to crude touch) [1] | mechanical allodynia (sensitivity to crude touch) ([1]; listed as (+)-JQ-1) | persistence of effects after treatment [1] | TRPA1 expression in maxillary nerves (TRPA1) | mechanical allodynia (analgesic effect) [2] | cold allodynia (analgesic effect) [3] | duration of analgesic effect ([1]; mouse, in vivo) | mechanical allodynia ([1]; single local treatment, exemestane 25 μg/site applied directly to the maxillary nerve during surgery) | mechanical allodynia [2, 4] | cold allodynia [3, 4] |
| --- | --- | --- | --- | --- | --- | --- | --- | --- | --- | --- |
| Cc1sc2c(c1C)C(c1ccc(Cl)cc1)=N[C@@H](CC(=O)OC(C)(C)C)c1nnc(C)n1-2 [JQ-1, (S)-tert-butyl 2-(4-(4-chlorophenyl)-2,3,9-trimethyl-6H-thieno[3,2-f][1,2,4]triazolo[4,3-a][1,4]diazepin-6-yl)acetate] | much less sensitive | lowered | 24 h | did not affect TRPA1 expression | lowers | lowers | – | – | – | – |
| C=C1C[C@@H]2[C@H](CC[C@]3(C)C(=O)CC[C@@H]23)[C@@]2(C)C=CC(=O)C=C12 [exemestane, 6-methylenandrosta-1,4-diene-3,17-dione] | much less sensitive; also recorded: lowered | – | 24 h | did not affect TRPA1 expression | lose their analgesic effects | lose their analgesic effects | persists over the course of days to weeks | lessened | – | – |
| C[S+]([O-])CCCCN=C=S (centres unmarked) [sulforaphane, 1-isothiocyanato-4-(methanesulfinyl)butane] | less sensitive | – | 24 h | did not affect TRPA1 expression | lose their analgesic effects | lose their analgesic effects | – | – | did not lower | did not lower |
